Data published in patent US20250051344A1, “BIFUNCTIONAL SELECTIVE DEGRADERS OF SMARCA2 AND THERAPEUTIC USES THEREOF” (Nurix Therapeutics, Inc., priority 2023, published 2025).

Assays:
SMARCA4 = biological target: T1, SMARCA4 (Homo sapiens, UniProt P51532); assay: Cellular degradation assay, SMARCA4 (Table 1); type: cell-based
T1 construct: endogenous in cells

SMARCA2 = biological target: T2, SMARCA2 (Homo sapiens, UniProt P51531); assay: SMARCA2 Cellular Degradation Assay (Western blot analysis on Jess platform); type: cell-based; conditions: for DC50 / Dmax: cellular degradation; for Fold Selectivity SMARCA4/2: ratio DC50 SMARCA4 / DC50 SMARCA2
T2 construct: endogenous in cells
T2 sequence (P51531 whole entry, species assumed): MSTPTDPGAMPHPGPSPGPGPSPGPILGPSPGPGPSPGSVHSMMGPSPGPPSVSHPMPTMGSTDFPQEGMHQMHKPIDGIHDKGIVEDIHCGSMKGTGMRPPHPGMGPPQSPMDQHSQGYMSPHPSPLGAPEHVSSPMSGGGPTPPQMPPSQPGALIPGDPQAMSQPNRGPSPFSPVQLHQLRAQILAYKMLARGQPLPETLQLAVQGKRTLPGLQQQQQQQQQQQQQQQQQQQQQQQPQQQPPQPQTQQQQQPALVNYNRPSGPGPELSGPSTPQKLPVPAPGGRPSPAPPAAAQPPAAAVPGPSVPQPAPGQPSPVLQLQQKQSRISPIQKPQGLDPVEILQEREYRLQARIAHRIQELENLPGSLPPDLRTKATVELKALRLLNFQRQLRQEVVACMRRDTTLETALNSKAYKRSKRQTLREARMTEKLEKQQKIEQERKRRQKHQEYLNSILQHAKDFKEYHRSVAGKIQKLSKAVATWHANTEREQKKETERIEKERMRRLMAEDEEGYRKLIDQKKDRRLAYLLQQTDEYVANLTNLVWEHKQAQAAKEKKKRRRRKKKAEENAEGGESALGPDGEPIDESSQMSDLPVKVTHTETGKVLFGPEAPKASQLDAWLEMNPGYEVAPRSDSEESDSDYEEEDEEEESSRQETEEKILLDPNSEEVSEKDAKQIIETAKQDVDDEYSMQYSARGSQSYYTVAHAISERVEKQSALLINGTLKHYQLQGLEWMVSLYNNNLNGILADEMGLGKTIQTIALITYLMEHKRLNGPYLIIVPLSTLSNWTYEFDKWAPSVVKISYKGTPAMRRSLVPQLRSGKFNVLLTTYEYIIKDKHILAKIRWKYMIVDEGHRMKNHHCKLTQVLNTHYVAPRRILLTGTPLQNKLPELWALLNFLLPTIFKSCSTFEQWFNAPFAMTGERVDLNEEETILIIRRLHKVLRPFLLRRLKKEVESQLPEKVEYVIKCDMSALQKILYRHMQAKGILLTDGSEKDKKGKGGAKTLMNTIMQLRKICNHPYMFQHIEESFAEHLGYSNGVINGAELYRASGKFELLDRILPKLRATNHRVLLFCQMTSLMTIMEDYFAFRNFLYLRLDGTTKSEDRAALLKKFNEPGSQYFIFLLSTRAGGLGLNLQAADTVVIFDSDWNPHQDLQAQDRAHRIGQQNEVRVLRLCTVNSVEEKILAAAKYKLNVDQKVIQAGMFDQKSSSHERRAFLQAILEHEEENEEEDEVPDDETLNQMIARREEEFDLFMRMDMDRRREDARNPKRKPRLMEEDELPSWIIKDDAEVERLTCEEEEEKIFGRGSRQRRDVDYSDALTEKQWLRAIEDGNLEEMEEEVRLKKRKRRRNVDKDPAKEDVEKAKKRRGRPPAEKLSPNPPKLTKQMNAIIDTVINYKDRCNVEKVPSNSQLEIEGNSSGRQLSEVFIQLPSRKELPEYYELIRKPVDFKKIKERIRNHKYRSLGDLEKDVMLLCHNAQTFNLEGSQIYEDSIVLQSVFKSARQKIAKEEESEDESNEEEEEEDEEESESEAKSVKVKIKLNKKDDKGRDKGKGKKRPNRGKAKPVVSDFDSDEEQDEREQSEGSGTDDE
Method: SMARCA2 Cellular Degradation Assay
Western Blot Analysis for SMARCA2 Degradation
Frozen cell pellets were thawed on ice and resuspended in RIPA lysis buffer (Millipore, Cat. No. 20-188) supplemented with 0.2% SDS (Fisher Scientific, Cat. No. 24730020), 200 mM β-glycerophosphate (Alfa Aesar, Cat. No. J62121), 500 mM NaF (Rigaku, Cat. No. 1008046), protease inhibitor (1 tablet per 10 mL, Sigma, Cat. No. 11836170001), 250 U/μL benzonase (Millipore, Cat. No. 71206), 200 mM sodium orthovanadate (FivePhoton, Cat. No. ActVO-4), and 100 mM PMSF (Sigma, Cat. No. 10837091001). 50 μL lysis buffer was used to lyse each pellet containing 5×10E5-1×10E6 live cells extracted from tumors. Lysates were centrifuged for 10 mins at 20,817×g and lysate supernatants were saved for further analysis. Protein levels were determined by the BCA Assay performed according to manufacturer's protocol (EMD Millipore, Cat. No. 71285-3). Samples were evaluated by Western blot analysis on the Jess Platform (ProteinSimple). Lysates were diluted with complete lysis buffer (as described above) and 5 μg of total proteins were loaded onto each capillary. Samples were prepared using the ProteinSimple EZ Standard Pack 1 (Cat. No. PS-ST01EZ-8; containing tubes with powdered (5×) Fluorescent Master Mix, DTT, and biotinylated ladder) and run using the ProteinSimple 25-Capillary Cartridge kit (Cat. No. SM-W004; containing 25-capillary cartridge Wash reagent, and 10× Sample Buffer reagent), the ProteinSimple Anti-Rabbit HRP Detection Module for Jess (Cat. No. DM-001; containing Antibody Diluent, anti-rabbit secondary antibody, Luminol-S, Peroxide, and Streptavidin-HRP), and the ProteinSimple Anti-Mouse NIR Detection Module for Jess (Cat. No. DM-009; containing Antibody Diluent, anti-mouse NIR secondary antibody, and Streptavidin-NIR) as the following describes. The DTT was reconstituted with 40 μL water to make a 400 mM solution, 20 μL of the DTT solution plus 20 μL of 10× Sample Buffer were added to reconstitute the 5× Fluorescent Master Mix, and 20 μL of H2O was used to reconstitute the biotinylated ladder. For each sample, lysate (4 μL) was combined with 5× Fluorescent Master Mix (1 μL) and heated at 95° C. for 5 minutes. Samples were cooled and stored on ice. Primary antibody solution was made using anti-SMARCA2 antibody (Abcam, Cat. No. 240648, 1:10) and anti-beta-Actin antibody (Cell Signaling Technology, Cat. No. 3700S, 1:25) in antibody diluent. The 25-capillary cartridges were prepared per standard ProteinSimple protocol with each sample in a column. For the biotinylated ladder in column 1, the following were added: 5 µL of ladder sample in Row A, 10 μL of antibody diluent in Rows B and C, 10 μL of Streptavidin-NIR in Row D, and 15 μL of a 50:50 Luminol-s/Peroxide solution in Row E. For each test sample (columns 2-25), the following were added per column: 5 μL of sample in Row A, 10 μL of antibody diluent in Row B, 10 μL of primary antibody solution in Row C, 10 μL of secondary antibody in Row D, and 15 μL of a 50:50 Luminol-S/Peroxide solution in Row E. 500 μL wash buffer was added to the wash buffer wells in the cartridge and cartridge was spun at 1000×g for 5 minutes prior to loading into the Jess. Samples were run using the Chemiluminescence and Fluorescence immunoassays in the ProteinSimple Compass for SimpleWestern program (version 5.0.0). After running, SMARCA2, actin, and background curves were identified in the Compass software; note that in the Compass software, the electropherograms are also visualized as bands for comparison with standard Western blot outputs. The electropherogram area reading for each sample curve was normalized to that of the corresponding actin curve per column following background (capillary background) subtraction using the following equation: […]
Following normalization, the percentage of SMARCA2 remaining per sample relative to the vehicle control was calculated as follows: […]

T1 sequence (P51532 whole entry, species assumed): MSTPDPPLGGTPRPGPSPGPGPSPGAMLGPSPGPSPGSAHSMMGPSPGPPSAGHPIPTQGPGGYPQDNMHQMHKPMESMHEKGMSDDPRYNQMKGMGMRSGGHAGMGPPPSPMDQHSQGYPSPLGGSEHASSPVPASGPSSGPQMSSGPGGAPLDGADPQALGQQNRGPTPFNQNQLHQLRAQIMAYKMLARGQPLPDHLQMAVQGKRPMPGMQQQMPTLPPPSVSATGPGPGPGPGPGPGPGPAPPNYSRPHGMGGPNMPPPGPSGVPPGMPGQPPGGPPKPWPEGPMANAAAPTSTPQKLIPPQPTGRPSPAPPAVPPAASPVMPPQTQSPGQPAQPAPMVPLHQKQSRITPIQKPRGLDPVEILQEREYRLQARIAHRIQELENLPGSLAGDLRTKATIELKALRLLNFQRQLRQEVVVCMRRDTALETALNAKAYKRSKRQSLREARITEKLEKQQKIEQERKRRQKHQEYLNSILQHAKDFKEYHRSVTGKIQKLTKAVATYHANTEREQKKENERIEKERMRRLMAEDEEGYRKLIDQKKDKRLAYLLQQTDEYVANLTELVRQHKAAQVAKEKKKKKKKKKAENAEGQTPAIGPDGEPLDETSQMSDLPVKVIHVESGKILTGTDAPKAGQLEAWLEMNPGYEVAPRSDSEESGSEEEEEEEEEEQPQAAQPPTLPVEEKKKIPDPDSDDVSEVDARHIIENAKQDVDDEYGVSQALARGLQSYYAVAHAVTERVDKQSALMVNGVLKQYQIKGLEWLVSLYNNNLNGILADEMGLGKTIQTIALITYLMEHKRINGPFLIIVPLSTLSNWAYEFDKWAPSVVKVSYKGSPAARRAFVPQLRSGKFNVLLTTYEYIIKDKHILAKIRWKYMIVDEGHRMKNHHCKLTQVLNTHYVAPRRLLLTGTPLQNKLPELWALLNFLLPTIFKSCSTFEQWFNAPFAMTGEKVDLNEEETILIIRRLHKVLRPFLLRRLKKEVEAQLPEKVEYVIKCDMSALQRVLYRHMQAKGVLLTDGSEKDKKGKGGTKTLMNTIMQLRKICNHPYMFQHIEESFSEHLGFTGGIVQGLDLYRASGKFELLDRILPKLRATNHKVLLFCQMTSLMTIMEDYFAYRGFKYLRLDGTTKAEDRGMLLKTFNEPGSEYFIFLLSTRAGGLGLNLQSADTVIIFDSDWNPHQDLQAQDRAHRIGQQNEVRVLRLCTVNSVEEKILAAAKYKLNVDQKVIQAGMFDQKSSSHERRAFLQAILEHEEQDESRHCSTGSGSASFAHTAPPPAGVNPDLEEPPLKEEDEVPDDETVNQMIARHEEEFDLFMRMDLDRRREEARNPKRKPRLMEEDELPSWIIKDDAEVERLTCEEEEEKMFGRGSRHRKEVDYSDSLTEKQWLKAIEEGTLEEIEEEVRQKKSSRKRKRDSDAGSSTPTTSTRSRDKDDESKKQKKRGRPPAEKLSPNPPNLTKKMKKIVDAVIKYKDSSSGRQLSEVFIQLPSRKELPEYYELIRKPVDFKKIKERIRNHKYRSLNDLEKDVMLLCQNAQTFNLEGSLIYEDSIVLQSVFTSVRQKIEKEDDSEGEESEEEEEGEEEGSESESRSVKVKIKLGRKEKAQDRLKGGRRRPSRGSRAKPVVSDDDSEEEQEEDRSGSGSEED

Row | Structure (SMILES) | DC50 (SMARCA4) | Dmax (SMARCA4) | DC50 (SMARCA2) | Dmax (SMARCA2) | Fold Selectivity SMARCA4/2 (SMARCA2)
1 | COC1(C(=O)N(C)C2CCN(CCC3CCN(c4cccc5c4n(C)c(=O)n5C4CCC(=O)NC4=O)CC3)CC2)CCN(c2cnnc(-c3ccccc3O)c2)CC1 (racemic) [Example 68, rac-N-(1-(2-(1-(1-(2,6-dioxopiperidin-3-yl)-3-methyl-2-oxo-2,3-dihydro-1H-benzo[d]imidazol-4-yl)piperidin-4-yl)ethyl)piperidin-4-yl)-1-(6-(2-hydroxyphenyl)pyridazin-4-yl)-4-methoxy-n-methylpiperidine-4-carboxamide] | 19.2 nM | 66.9% | 0.57 nM | 93.2% | 34
2 | O=C1CC[C@@H](c2ccc(N3CCC(CN4CC5(C4)CN(C(=O)C4(c6ccccc6)CCN(c6cnnc(-c7ccccc7O)c6)CC4)C5)CC3)cc2)C(=O)N1 [Example 8, (3S)-3-(4-{4-[(6-{1-[6-(2-hydroxyphenyl)pyridazin-4-yl]-4-phenylpiperidine-4-carbonyl}-2,6-diazaspiro[3.3]heptan-2-yl)methyl]piperidin-1-yl}phenyl)piperidine-2,6-dione] | – | 44.6% | 41.4 nM | 75.1% | 241.66
3 | COC1(C(=O)N(C)C2CCN(C(=O)CN3CCC(c4ccc([C@@H]5CCC(=O)NC5=O)cc4)CC3)CC2)CCN(c2cnnc(-c3ccccc3O)c2)CC1 (racemic) [Example 111, rac-n-(1-(2-(4-(4-(2,6-dioxopiperidin-3-yl)phenyl)piperidin-1-yl)acetyl)piperidin-4-yl)-1-(6-(2-hydroxyphenyl)pyridazin-4-yl)-4-methoxy-n-methylpiperidine-4-carboxamide] | 210 nM | 57.5% | 11.1 nM | 81.4% | 19
4 | O=C1CCC(c2ccc(OC3CCN(CC4CCN(C(=O)C5(c6ccccc6)CCN(c6cnnc(-c7ccccc7O)c6)CC5)CC4)CC3)cc2)C(=O)N1 (racemic) [Example 12, rac-(3R)-3-[4-({1-[(1-{1-[6-(2-hydroxyphenyl)pyridazin-4-yl]-4-phenylpiperidine-4-carbonyl}piperidin-4-yl)methyl]piperidin-4-yl}oxy)phenyl]piperidine-2,6-dione] | – | 36.9% | 144 nM | 61.7% | 69.67
5 | CN(C(=O)C1(Oc2ccn(C)n2)CCN(c2cnnc(-c3ccccc3O)c2)CC1)C1CCN(C(=O)CN2CCC(c3ccc([C@@H]4CCC(=O)NC4=O)cc3)CC2)CC1 (racemic) [Example 110, rac-n-(1-(2-(4-(4-(2,6-dioxopiperidin-3-yl)phenyl)piperidin-1-yl)acetyl)piperidin-4-yl)-1-(6-(2-hydroxyphenyl)pyridazin-4-yl)-n-methyl-4-((1-methyl-1h-pyrazol-3-yl)oxy)piperidine-4-carboxamide] | 273 nM | 56.9% | 16.7 nM | 80.8% | 16
6 | O=C1CC[C@H](c2ccc(N3CCC(CN4CC5(CCN(C(=O)C6(c7ccccc7)CCN(c7cnnc(-c8ccccc8O)c7)CC6)C5)C4)CC3)cc2)C(=O)N1 [Example 16, (3R)-3-(4-{4-[(6-{1-[6-(2-hydroxyphenyl)pyridazin-4-yl]-4-phenylpiperidine-4-carbonyl}-2,6-diazaspiro[3.4]octan-2-yl)methyl]piperidin-1-yl}phenyl)piperidine-2,6-dione] | 5020 nM | 56.1% | 7.48 nM | 82.6% | 671.32
7 | O=C1CCC(c2ccc(N3CCC(CCN4CC5(C4)CN(C(=O)C4(OC6CCCCC6)CCN(c6cnnc(-c7ccccc7O)c6)CC4)C5)CC3)cc2)C(=O)N1 (racemic) [Example 121, rac-3-(4-(4-(2-(6-(4-(cyclohexyloxy)-1-(6-(2-hydroxyphenyl)pyridazin-4-yl)piperidine-4-carbonyl)-2,6-diazaspiro[3.3]heptan-2-yl)ethyl)piperidin-1-yl)phenyl)piperidine-2,6-dione] | – | 29.3% | 14.9 nM | 74.3% | 671
8 | O=C1CC[C@H](c2ccc(N3CCC(CCN4CC5CCC(C4)C5C(=O)NCC4(c5ccccc5)CCN(c5cnnc(-c6ccccc6O)c5)CC4)CC3)cc2)C(=O)N1 (mixture of isomers) [Example 144, rac-3-(2-(1-(4-((r)-2,6-dioxopiperidin-3-yl)phenyl)piperidin-4-yl)ethyl)-n-((1-(6-(2-hydroxyphenyl)pyridazin-4-yl)-4-phenylpiperidin-4-yl)methyl)-3-azabicyclo[3.2.1]octane-8-carboxamide] | 13.4 nM | 80.7% | 1.36 nM | 93.7% | 10
9 | O=C1CC[C@H](c2ccc(N3CCC(CCN4CCC(Oc5ccccc5)(C(=O)NCC5(c6ccccc6)CCN(c6cnnc(-c7ccccc7O)c6)CC5)CC4)CC3)cc2)C(=O)N1 (racemic) [Example 103, rac-(r)-1-(2-(1-(4-(2,6-dioxopiperidin-3-yl)phenyl)piperidin-4-yl)ethyl)-n-((1-(6-(2-hydroxyphenyl)pyridazin-4-yl)-4-phenylpiperidin-4-yl)methyl)-4-phenoxypiperidine-4-carboxamide] | 129 nM | 68.4% | 15.7 nM | 87.4% | 8
10 | O=C1CC[C@H](c2ccc(N3CCC(CN4CCCC4C4CCCCN4C(=O)C4(c5ccccc5)CCN(c5cnnc(-c6ccccc6O)c5)CC4)CC3)cc2)C(=O)N1 (stereo partly drawn) [Example 42, (3R)-3-[4-(4-{[2-(1-{1-[6-(2-hydroxyphenyl)pyridazin-4-yl]-4-phenylpiperidine-4-carbonyl}piperidin-2-yl)pyrrolidin-1-yl]methyl}piperidin-1-yl)phenyl]piperidine-2,6-dione] | – | 9.32% | – | 28.7% | 1
11 | CN(C(=O)C1(c2ccccc2)CCN(c2cnnc(-c3ccccc3O)c2)CC1)C1CCN([C@H]2COC3(CCN(c4ccc([C@H]5CCC(=O)NC5=O)cc4)CC3)C2)CC1 (single isomer, unassigned) [Example 149] | – | 41% | 7.34 nM | 84.9% | 1362
12 | O=C1CCC(c2ccc(N3CCC(CN4CC5(C4)CN(C(=O)C4(c6cccc(Cl)c6)CCN(c6cnnc(-c7ccccc7O)c6)CC4)C5)CC3)cc2)C(=O)N1 (racemic) [Example 27, rac-(3R)-3-{4-[4-({6-[4-(3-chlorophenyl)-1-[6-(2-hydroxyphenyl)pyridazin-4-yl]piperidine-4-carbonyl]-2,6-diazaspiro[3.3]heptan-2-yl}methyl)piperidin-1-yl]phenyl}piperidine-2,6-dione] | 132 nM | 56.5% | 18.2 nM | 72.8% | 7.24
13 | O=C1CCC(c2ccc(N3CCC(F)(CCN4CC5(C4)CN(C(=O)C4(c6ccccc6)CCN(c6cnnc(-c7ccccc7O)c6)CC4)C5)CC3)cc2)C(=O)N1 (racemic) [Example 122, rac-(3R)-3-(4-{4-fluoro-4-[2-(6-{1-[6-(2-hydroxyphenyl)pyridazin-4-yl]-4-phenylpiperidine-4-carbonyl}-2,6-diazaspiro[3.3]heptan-2-yl)ethyl]piperidin-1-yl}phenyl)piperidine-2,6-dione] | – | 34.8% | 9.13 nM | 73.6% | 1095
